What was measured:
[1] = test system: volunteer conventional or transgenic maize lines; assay: Control of volunteer maize in a field planted with AAD-maize using alternative herbicides (Table 6, herbicide options); assay type: in vivo; details: for Herbicides option - Burndown/PRE: planted: any AAD-1 hybrid of the table
Description: In an embodiment, volunteer transgenic maize lines (containing the Clear Field trait, Roundup Ready or other Glyphosate Tolerant Trait, Liberty Link Trait, Imidazolonine tolerant trait, or any stacked combination thereof) or volunteer conventional maize lines are controlled within a field of transgenic AAD maize (AAD-1) by the application of aryloxyphenoxypropionate herbicide (Fops) including, but not limited to; quizalofop, haloxyfop, fenoxaprop, fluazifop, et al., their stereospecific isomers or racemic mixtures, and esters, acid, or salts thereof. In addition, the Fops herbicide may be applied with another herbicide(s) to control the volunteer maize lines described above.
The application of a given herbicide can be made before planting at pre-emergence/burndown or post-emergence after planting to control the volunteer conventional or transgenic maize lines. Table 6 lists the herbicides to be used at the different stages of planting (pre-emergence or post-emergence) to control volunteer conventional or transgenic maize. At or about a 1× Field Rate concentration of herbicide would be applied, as either a tank mix or alone, to the field for both pre-emergent and post-emergent volunteer control.
The control of conventional maize plants or transgenic maize plants containing a herbicide tolerant expression cassette within a field of AAD transgenic maize (either stacked with other herbicide tolerant traits or alone) would be applicable for the control of a herbicide tolerant transgenic monocot plant (including, but not limited too; corn, rice, sugar cane, switch grass, turf grass species, sorghum, barley, wheat, and oats, and durum) within a field being planted with an AAD monocot crop (including, but not limited too; corn, rice, sugar cane, switch grass, turf grass species, sorghum, barley, wheat, and oats, and durum). The example described above, in which volunteer transgenic herbicide tolerant maize plants are controlled in a field planted with AAD transgenic maize, is illustrative of the invention and not intended to restrict the scope of this embodiment.

[2] = test system: Transgenic Hi-II maize plants containing the AAD-1 and PAT expression cassette (3404); assay: Post-emergent herbicide application on transgenic maize containing AAD-1 and PAT (pDAB3404), visual injury assessment; assay type: in vivo; details: for Tolerance (−/+) 3404: 3404 = molecular stack of AAD-1 and PAT crossed with CP4 for glyphosate tolerance, V1-V3 stage, 1x Field Rate, visual injury after 14 days; for Comment (activity in words): applies to both WT and AAD-1 plants; for injury: WT and 3404 not distinguished
Description: Seed were planted into Metro Mix Media (Sun Gro Horticulture Inc., Bellevue, Wash.) and subirrigated with Hoagland's solution until wet, then allowed to gravity drain. Pots were placed in a glasshouse environment set to 27° C. until the germinated plants reached the V1-V3 growth stage. At or about, the V1-V3 growth stage, the maize plants were spayed using a track sprayer and a drop down nozzle calibrated to deliver a187 L/ha solution of herbicide at the 1× Field Rate (Table 7). After treatment the plants were placed in the greenhouse and scored via visual injury assessment after 14 days.

[3] = volunteer: CL Corn, planted: AAD-1 + PAT + AHAS
[4] = volunteer: CL Corn, planted: AAD-1 + PAT + GAT + ALS
[5] = volunteer: CL Corn, planted: AAD-1 + PAT + GT
[6] = volunteer: Conventional corn, planted: AAD-1 + PAT + AHAS
[7] = volunteer: Conventional corn, planted: AAD-1 + PAT + GAT + ALS
[8] = volunteer: Conventional corn, planted: AAD-1 + PAT + GT
[9] = volunteer: RR or GT Corn (text printed beside the CL Corn lines r30-r36)

O=C(O)CNCP(=O)(O)O [Glyphosate]
Herbicides option - Burndown/PRE ([1]; volunteer: CL (or AHAS) + PAT): Glyphosate | Herbicides option - Burndown/PRE ([1]; volunteer: CL Corn): Glyphosate | Herbicides option - Burndown/PRE ([1]; volunteer: Conventional corn): Glyphosate | Herbicides option - Burndown/PRE ([1]; volunteer: GAT + ALS): Glyphosate | Herbicides option - Burndown/PRE ([1]; volunteer: LL Corn): Glyphosate

CCSC(C)CC1CC(=O)C(/C(CC)=N/OC/C=C/Cl)=C(O)C1 (stereo not shown) [clethodim]
Tolerance (−/+) 3404 [2]: −

C[C@@H](Oc1ccc(Oc2ncc(Cl)cc2F)cc1)C(=O)O [clodinafop]
Tolerance (−/+) 3404 [2]: +

CCCCOC(=O)[C@@H](C)Oc1ccc(Oc2ccc(C#N)cc2F)cc1 [cyhalofop-butyl]
Tolerance (−/+) 3404 [2]: +

COC(=O)C(C)Oc1ccc(Oc2ccc(Cl)cc2Cl)cc1 (stereo not shown) [diclofop-methyl]
Tolerance (−/+) 3404 [2]: − | Comment (activity in words) [2]: Not active on grasses

CCOC(=O)[C@@H](C)Oc1ccc(Oc2nc3ccc(Cl)cc3o2)cc1 [fenoxaprop-P-ethyl]
Tolerance (−/+) 3404 [2]: +

CCCCOC(=O)[C@@H](C)Oc1ccc(Oc2ccc(C(F)(F)F)cn2)cc1 [fluazifop-P-butyl]
Tolerance (−/+) 3404 [2]: +

CP(=O)(O)CCC(N)C(=O)O (stereo not shown) [glufosinate-ammonium]
Tolerance (−/+) 3404 [2]: +

CP(=O)(O)CCC(N)C(=O)O (stereo not shown) [glufosinate]
Herbicides option - POST ([1]; volunteer: CL (or AHAS) + GT, planted: AAD-1 + PAT): glufosinate | Herbicides option - POST ([1]; volunteer: CL (or AHAS) + GT, planted: AAD-1 + PAT + AHAS): glufosinate | Herbicides option - POST ([1]; volunteer: CL (or AHAS) + GT, planted: AAD-1 + PAT + GAT + ALS): glufosinate | Herbicides option - POST ([1]; volunteer: CL (or AHAS) + GT, planted: AAD-1 + PAT + GT): glufosinate | Herbicides option - Burndown/PRE ([1]; volunteer: CL (or AHAS) + GT): glufosinate | Herbicides option - Burndown/PRE ([1]; volunteer: CL (or AHAS) + PAT): glufosinate | Herbicides option - POST ([1]; volunteer: CL Corn, planted: AAD-1 + PAT): glufosinate | Herbicides option - POST [1, 3]: glufosinate | Herbicides option - POST [1, 4]: glufosinate | Herbicides option - POST [1, 5]: glufosinate | Herbicides option - Burndown/PRE ([1]; volunteer: CL Corn): glufosinate | Herbicides option - POST ([1]; volunteer: Conventional corn, planted: AAD-1 + PAT): glufosinate | Herbicides option - POST [1, 6]: glufosinate | Herbicides option - POST [1, 7]: glufosinate | Herbicides option - POST [1, 8]: glufosinate | Herbicides option - Burndown/PRE ([1]; volunteer: Conventional corn): glufosinate | Herbicides option - POST ([1]; volunteer: GAT + ALS, planted: AAD-1 + PAT): glufosinate | Herbicides option - POST ([1]; volunteer: GAT + ALS, planted: AAD-1 + PAT + AHAS): glufosinate | Herbicides option - POST ([1]; volunteer: GAT + ALS, planted: AAD-1 + PAT + GAT + ALS): glufosinate | Herbicides option - POST ([1]; volunteer: GAT + ALS, planted: AAD-1 + PAT + GT): glufosinate | Herbicides option - Burndown/PRE ([1]; volunteer: GAT + ALS): glufosinate | Herbicides option - Burndown/PRE [1, 9]: glufosinate | Herbicides option - POST ([1]; volunteer: RR or GT Corn, planted: AAD-1 + PAT): glufosinate | Herbicides option - POST ([1]; volunteer: RR or GT Corn, planted: AAD-1 + PAT + AHAS): glufosinate | Herbicides option - POST ([1]; volunteer: RR or GT Corn, planted: AAD-1 + PAT + GAT + ALS): glufosinate | Herbicides option - POST ([1]; volunteer: RR or GT Corn, planted: AAD-1 + PAT + GT): glufosinate

CC(C)N.O=C(O)CNCP(=O)(O)O [glyphosate-isopropylammonium]
Tolerance (−/+) 3404 [2]: +

O=C(O)CNCP(=O)(O)O [glyphosate]
Herbicides option - POST ([1]; volunteer: CL (or AHAS) + PAT, planted: AAD-1 + AHAS): glyphosate | Herbicides option - POST ([1]; volunteer: CL (or AHAS) + PAT, planted: AAD-1 + GAT + ALS): glyphosate | Herbicides option - POST ([1]; volunteer: CL (or AHAS) + PAT, planted: AAD-1 + GT): glyphosate | Herbicides option - POST ([1]; volunteer: CL (or AHAS) + PAT, planted: AAD-1 + PAT + AHAS): glyphosate | Herbicides option - POST ([1]; volunteer: CL (or AHAS) + PAT, planted: AAD-1 + PAT + GAT + ALS): glyphosate | Herbicides option - POST ([1]; volunteer: CL (or AHAS) + PAT, planted: AAD-1 + PAT + GT): glyphosate | Herbicides option - POST ([1]; volunteer: CL Corn, planted: AAD-1 + AHAS): glyphosate | Herbicides option - POST ([1]; volunteer: CL Corn, planted: AAD-1 + GAT + ALS): glyphosate | Herbicides option - POST ([1]; volunteer: CL Corn, planted: AAD-1 + GT): glyphosate | Herbicides option - POST [1, 3]: glyphosate | Herbicides option - POST [1, 4]: glyphosate | Herbicides option - POST [1, 5]: glyphosate | Herbicides option - POST ([1]; volunteer: Conventional corn, planted: AAD-1 + AHAS): glyphosate | Herbicides option - POST ([1]; volunteer: Conventional corn, planted: AAD-1 + GAT + ALS): glyphosate | Herbicides option - POST ([1]; volunteer: Conventional corn, planted: AAD-1 + GT): glyphosate | Herbicides option - POST [1, 6]: glyphosate | Herbicides option - POST [1, 7]: glyphosate | Herbicides option - POST [1, 8]: glyphosate | Herbicides option - POST ([1]; volunteer: LL Corn, planted: AAD-1 + AHAS): glyphosate | Herbicides option - POST ([1]; volunteer: LL Corn, planted: AAD-1 + GAT + ALS): glyphosate | Herbicides option - POST ([1]; volunteer: LL Corn, planted: AAD-1 + GT): glyphosate | Herbicides option - POST ([1]; volunteer: LL Corn, planted: AAD-1 + PAT + AHAS): glyphosate | Herbicides option - POST ([1]; volunteer: LL Corn, planted: AAD-1 + PAT + GAT + ALS): glyphosate | Herbicides option - POST ([1]; volunteer: LL Corn, planted: AAD-1 + PAT + GT): glyphosate

COC(=O)[C@@H](C)Oc1ccc(Oc2ncc(C(F)(F)F)cc2Cl)cc1 [haloxyfop-methyl R]
Tolerance (−/+) 3404 [2]: +

COCc1cnc(C2=NC(C)(C(C)C)C(=O)N2)c(C(=O)O)c1 (stereo not shown) [imazamox]
Tolerance (−/+) 3404 [2]: −

CC(C)C1(C)N=C(c2nc3ccccc3cc2C(=O)O)NC1=O (stereo not shown) [imazaquin]
Tolerance (−/+) 3404 [2]: −/+ | injury ([2]; @ 50 g ai/ha): Need higher than 50 g ai/ha rate (50% injury @

CCc1cnc(C2=NC(C)(C(C)C)C(=O)N2)c(C(=O)O)c1 (stereo not shown) [imazethapyr]
Tolerance (−/+) 3404 [2]: −/+ | injury ([2]; @ 70 g ai/ha): Need higher than 70 g ai/ha rate (50% injury @

C[n+]1ccc(-c2cc[n+](C)cc2)cc1 [paraquat]
Herbicides option - Burndown/PRE ([1]; volunteer: CL (or AHAS) + GT): paraquat | Herbicides option - Burndown/PRE ([1]; volunteer: CL (or AHAS) + PAT): paraquat | Herbicides option - Burndown/PRE ([1]; volunteer: CL Corn): paraquat | Herbicides option - Burndown/PRE ([1]; volunteer: Conventional corn): paraquat | Herbicides option - Burndown/PRE ([1]; volunteer: GAT + ALS + PAT): paraquat | Herbicides option - Burndown/PRE ([1]; volunteer: GAT + ALS): paraquat | Herbicides option - Burndown/PRE ([1]; volunteer: GT + CL (or AHAS) + PAT): paraquat | Herbicides option - Burndown/PRE ([1]; volunteer: GT + PAT): paraquat | Herbicides option - Burndown/PRE ([1]; volunteer: LL Corn): paraquat | Herbicides option - Burndown/PRE [1, 9]: paraquat

CCc1cc(C)cc(CC)c1-c1c(OC(=O)C(C)(C)C)n2n(c1=O)CCOCC2 [pinoxaden]
Tolerance (−/+) 3404 [2]: +/− | Comment (activity in words) [2]: Not active but small amt of control on both WT

CC(Oc1ccc(Oc2cnc3cc(Cl)ccc3n2)cc1)C(=O)O (stereo not shown) [quizalofop]
Tolerance (−/+) 3404 [2]: +

CCC/C(=N\OCC)C1=C(O)CC(CC(C)SCC)CC1=O (stereo not shown) [sethoxydim]
Tolerance (−/+) 3404 [2]: −

CCO/N=C(\CC)C1=C(O)CC(c2c(C)cc(C)cc2C)CC1=O (stereo not shown) [tralkoxydim]
Tolerance (−/+) 3404 [2]: −
